From patent US11319601B2, “Cell based assay” (Medical Diagnostic Laboratories, L.L.C., priority 2017, dated 2022)
“Also recorded” adds a separate entry of the source.

Columns and labels:
[1] = tested on: HER1, HER2 and HER3 receptors; assay: ERK-Luc, JNK-Luc and NFkB-Luc reporters in HEK293 cells co-transfected with HER1, HER2 and HER3, treated with ligand; assay type: cell-based, human; conditions: ligand 6 hours; HER1, HER2, HER3 co-transfected HEK293
Procedure: In order to identify reporters to measure the activity of HER2 receptor, expression plasmids of HER1, HER2 and HER3 were co-transfected with different reporter constructs, including ERK-Luc, JNK-Luc and NFkB-Luc, into the HEK293 cells. After 24 hours, the transfected cells were treated with either EGF (HER1 receptor ligand) or NRG1 (HER3 receptor ligand) for 6 hours. The luciferase reporter activity of the transfected cells was measured by Nano-Glo® Luciferase Assay (Promega). […] JNK-Luc reporter was activated when the transfected cells were treated with either HER1 or HER3 ligand (FIG. 11B).
For cell transfection experiments, HEK293 cells (ATCC) were plated at density of 4-8×10^4 cells per well (96-well plates) or 1-2×10^4 cells per well (384-well plates) in phenol red-free MEM containing 10% FBS and antibiotics. Either DNA plasmid or linear DNA was mixed with TransIT-293 transfection reagent (Mirus Bio LLC). Once cells were trypsinized, DNA transfection mix was added. The cells were then incubated for 24 or 48 hours.

[2] = target: T1, wild-type HER2 receptor (Homo sapiens, UniProt P04626); assay: 6×JNK-Luc reporter in HEK293 DKO #27 cells transfected with HER2 and HER3 expression plasmids; assay type: cell-based; conditions: 6 hours
T1 construct: expressed in transfected cells
Procedure: In example 4, the generation double knockout cells (HEK293 DKO #27) of HER1 and HER2 receptors was described. No protein expression of HER1 and HER2 receptors was detected by immunoblot assays. In order to characterize whether these cells are desirable for use in the assay of the invention, 6×JNK-Luc was co-transfected with expression plasmids of HER3 and wild-type HER2 receptors. After 24 hours, the transfected cells were treated with a serial dilution of NRG1 (HER3 receptor ligand) for 6 hours. The luciferase reporter activity of the transfected cells was measured by Nano-Glo® Luciferase Assay (Promega).
In order to validate the requirement of HER2 receptor in the activation of 6×JNK-Luc reporter in response to NRG1 treatment, the DKO #27 cells were transfected with the wild-type HER2 and HER3 expression plasmids followed by treatment of HER2 inhibitors for 6 hours. The luciferase reporter activity of the treated cells was measured by Nano-Glo® Luciferase Assay (Promega). […]
In order to validate that this 6×JNK-Luc reporters has the capacity of measuring HER2 receptor activity, the reporters were co-transfected with expression plasmids of HER3 and wild-type, constitutively active or kinase-dead HER2 receptors into the DKO #27 cells. […] The luciferase reporter activity of the transfected cells was measured by Nano-Glo® Luciferase Assay (Promega). […]

[3] = target: T2, P780ins HER2 receptor (Homo sapiens, UniProt P04626, INS780GSP); assay: HER2 reporter cells transfected with linear expression cassette of P780ins HER2, all-in-one method; assay type: cell-based; conditions: all-in-one method
T2 construct: expressed in transfected cells; host or cells: HER2 reporter cells (clone #1)
Text: P780ins corresponds to an insertion mutation of HER2, which adds 3 amino acids (GSP) after the amino acid position of […] (Proline—P). In order to functionally characterize this mutation, PCR-mediated overlapping extension was employed to construct linear expression cassette of HER2 carrying this insertion. The linear expression cassette of mutant HER2 DNA was first transfected into the reporter cells followed by treatment with NRG1 and its inhibitors using the “all-in-one” method. The luciferase reporter activity was measured 24 hours post-transfection.

[4] = target: T1, wild-type HER2 receptor; assay: HER2 reporter cells (clone #1) transfected with wild-type HER2, 384-well plate; assay type: cell-based
Procedure: Clone #1 is alternately referred to as the “HER2 reporter cells”. These cells were transiently transfected with the wild-type, constitutively active or kinase-dead forms of HER2 receptors in the 384-well format. After 24 hours, the transfected cells were treated with NRG1. The luciferase reporter activity of the transfected cells was measured by Nano-Glo® Luciferase Assay (Promega). […] The reporter activity of the transfected cells expressing the wild-type form of HER2 receptor was activated upon treatment with NRG1 (FIG. 25). When the cells were transfected with the constitutively active form of HER2 receptor, the reporter activity was activated in the absence of NRG1. However, no activation of reporter was detected when the cells were transfected with the kinase-dead form of HER2 receptor.
The HER2 reporter cells were first transfected with 100 ng of linear expression cassette of HER2. NRG1 was added to the cells 24 hours post-transfection. […] A robust reporter signal was detected even at 2.5 ng/ml of NRG1.
To further reduce the assay turnaround time, different stimulation methods were explored. The first method evaluated was Example 9d which was performed by addition of NRG1 to the cells 24 hours post-transfection for 4, 6 and 24 hours. […] The reporter activity was measured 24 hours post-transfection (FIG. 27A). […]

Question: What does the source list for “NRG1: neuregulin-1, HER3 receptor ligand”?
Answer: ERK-Luc reporter activation [1]: activated; JNK-Luc reporter activation [1]: activated; NFkB-Luc reporter activation [1]: no activation; 6×JNK-Luc reporter activation by ligand [2]: dose dependent activation; also recorded: activated; response of mutant HER2 reporter activity to ligand [3]: independent; reporter activation by ligand [4]: activated; also recorded: dose-dependent response; also recorded: good dose response; also recorded: dose dependent manner
